From ChEMBL document CHEMBL1201862, “PubChem BioAssay data set” (2004)
Activity calls are given as the source filed them.

Assays:
[1] = target: T1, Calpain-2 catalytic subunit (Sus scrofa, UniProt P43367); experiment: m-calpain protease blockers, concentration series – biochemical, fluorogenic peptide substrate, dose response (AID 1420); assay type: functional
T1 sequence (P43367 whole entry): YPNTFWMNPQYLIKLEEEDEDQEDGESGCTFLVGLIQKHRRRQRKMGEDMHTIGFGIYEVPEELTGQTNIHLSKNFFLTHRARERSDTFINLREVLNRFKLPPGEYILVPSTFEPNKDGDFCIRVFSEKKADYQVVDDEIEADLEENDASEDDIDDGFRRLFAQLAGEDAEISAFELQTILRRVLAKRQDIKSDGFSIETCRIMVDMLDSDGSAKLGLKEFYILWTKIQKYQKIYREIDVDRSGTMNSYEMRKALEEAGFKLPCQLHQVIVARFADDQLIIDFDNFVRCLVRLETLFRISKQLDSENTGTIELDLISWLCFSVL

[2] = viability of HCT116 lacking mutant beta-catenin – cell-based, human colon tumor, dose response (AID 1045); assay type: functional;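 further: HCT116 colon tumor cells with beta catenin knocked out; cells exposed to compound for 60 hours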
[3] = viability of PTEN-deleted HCT116 cells – cell-based, HCT116 PTEN knockout, dose response (AID 1047); assay type: functional;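 further: HCT116 colon tumor cells with PTEN knocked out; cells exposed to compound for 60 hours before readout; potency for loss of cell viability measured by luminescence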
[4] = HPDE-C7 pancreatic duct cell viability loss – fluorescence, HTS (AID 430); assay type: functional, cell-based; details: Homo sapiens
[5] = viability loss of HPDE-C7K cells – cell-based, fluorescence, HTS, primary screen (AID 431); assay type: functional; details: Homo sapiens
[6] = target: T2, Tyrosine-protein phosphatase non-receptor type 7 (Homo sapiens, UniProt P35236); experiment: HePTP tyrosine phosphatase activity blockers – biochemical, absorbance, leukemia target, primary screen (AID 521); assay type: functional
T2 sequence (P35236 whole entry): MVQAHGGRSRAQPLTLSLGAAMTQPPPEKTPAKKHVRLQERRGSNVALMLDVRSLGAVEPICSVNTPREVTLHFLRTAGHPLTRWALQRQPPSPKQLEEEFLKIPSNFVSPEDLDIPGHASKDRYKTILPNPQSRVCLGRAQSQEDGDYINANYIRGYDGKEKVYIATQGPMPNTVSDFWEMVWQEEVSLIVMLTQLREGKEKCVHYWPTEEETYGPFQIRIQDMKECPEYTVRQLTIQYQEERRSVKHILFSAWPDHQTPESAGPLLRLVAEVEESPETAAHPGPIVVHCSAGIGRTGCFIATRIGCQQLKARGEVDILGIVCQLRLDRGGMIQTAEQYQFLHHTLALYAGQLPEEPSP

[7] = target: T3, Leucine aminopeptidase (Plasmodium falciparum 3D7, UniProt Q8IL11); experiment: P. falciparum M17LAP inhibitors, primary screen, biochemical, fluorogenic H-Leu-NHMec substrate, 1536-well (AID 1619); assay type: functional
T3 sequence (Q8IL11 whole entry): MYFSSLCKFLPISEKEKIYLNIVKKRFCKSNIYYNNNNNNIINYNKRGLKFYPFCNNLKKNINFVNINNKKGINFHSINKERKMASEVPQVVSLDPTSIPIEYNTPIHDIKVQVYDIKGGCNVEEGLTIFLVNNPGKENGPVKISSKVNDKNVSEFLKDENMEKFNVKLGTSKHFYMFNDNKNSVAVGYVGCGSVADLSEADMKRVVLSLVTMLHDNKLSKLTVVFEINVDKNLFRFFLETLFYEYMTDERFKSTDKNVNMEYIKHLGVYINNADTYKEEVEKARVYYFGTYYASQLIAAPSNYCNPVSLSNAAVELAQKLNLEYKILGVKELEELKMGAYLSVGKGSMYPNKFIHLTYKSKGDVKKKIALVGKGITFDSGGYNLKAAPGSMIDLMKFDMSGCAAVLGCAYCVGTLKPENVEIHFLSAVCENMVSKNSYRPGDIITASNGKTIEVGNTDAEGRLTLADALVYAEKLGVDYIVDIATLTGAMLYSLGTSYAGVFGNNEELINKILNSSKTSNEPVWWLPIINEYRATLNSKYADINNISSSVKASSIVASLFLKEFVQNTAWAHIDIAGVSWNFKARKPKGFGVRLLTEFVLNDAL

[8] = target: T4, Replicative DNA helicase DnaB (Mycobacterium tuberculosis, UniProt P9WMR3); experiment: DnaB intein splicing inhibitors, dose response, biochemical, cell-free fluorescence (AID 449749); assay type: functional
T4 sequence (P9WMR3 whole entry): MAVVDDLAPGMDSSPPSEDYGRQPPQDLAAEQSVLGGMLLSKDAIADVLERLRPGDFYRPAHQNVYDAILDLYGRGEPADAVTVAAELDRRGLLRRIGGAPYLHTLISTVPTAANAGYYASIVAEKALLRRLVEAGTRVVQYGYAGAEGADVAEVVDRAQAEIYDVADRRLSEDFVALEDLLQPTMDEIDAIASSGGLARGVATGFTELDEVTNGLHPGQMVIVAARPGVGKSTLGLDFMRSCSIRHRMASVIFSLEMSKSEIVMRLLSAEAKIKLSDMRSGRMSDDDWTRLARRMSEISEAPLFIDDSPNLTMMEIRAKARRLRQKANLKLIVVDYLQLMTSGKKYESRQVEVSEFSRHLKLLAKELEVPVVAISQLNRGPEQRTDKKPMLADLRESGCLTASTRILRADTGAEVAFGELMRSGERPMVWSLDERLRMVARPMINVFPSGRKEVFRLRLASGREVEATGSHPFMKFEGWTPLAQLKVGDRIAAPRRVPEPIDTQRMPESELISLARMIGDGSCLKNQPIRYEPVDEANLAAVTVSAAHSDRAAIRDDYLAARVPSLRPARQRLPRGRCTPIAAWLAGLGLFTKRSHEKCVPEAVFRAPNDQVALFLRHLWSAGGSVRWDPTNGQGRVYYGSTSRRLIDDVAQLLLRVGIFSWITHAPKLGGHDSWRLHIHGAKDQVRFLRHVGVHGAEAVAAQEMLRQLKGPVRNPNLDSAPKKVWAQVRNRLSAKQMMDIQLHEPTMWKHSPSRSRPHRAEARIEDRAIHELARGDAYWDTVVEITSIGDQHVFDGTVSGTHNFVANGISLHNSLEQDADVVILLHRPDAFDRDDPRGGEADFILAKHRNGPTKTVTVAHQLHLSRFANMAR

[9] = target: T5, Caspase-6 (Homo sapiens, UniProt P55212); experiment: inhibition of CASP6 peptide cleavage – biochemical, VEID-R110 fluorescence, cherry-pick, dose response (AID 720632)
T5 sequence (P55212 whole entry): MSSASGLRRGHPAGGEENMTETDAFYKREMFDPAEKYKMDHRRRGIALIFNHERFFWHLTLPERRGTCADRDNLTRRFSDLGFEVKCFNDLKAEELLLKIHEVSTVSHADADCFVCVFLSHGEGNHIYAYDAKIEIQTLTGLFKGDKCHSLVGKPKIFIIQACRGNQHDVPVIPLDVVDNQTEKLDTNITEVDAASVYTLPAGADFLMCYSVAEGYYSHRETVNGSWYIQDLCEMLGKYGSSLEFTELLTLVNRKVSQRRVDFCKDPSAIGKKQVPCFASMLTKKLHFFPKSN

[10] = target: T6, Protein RecA (Mycobacterium tuberculosis, UniProt P9WHJ3); experiment: Fluorescence Cell-Free Homogeneous Dose Retest to Identify Inhibitors of RecA-Intein Splicing Activity. [Related pubchem assays (depositor defined):AID2097, AID2223, AID489010, AID492950]; assay type: functional
T6 sequence (P9WHJ3 whole entry): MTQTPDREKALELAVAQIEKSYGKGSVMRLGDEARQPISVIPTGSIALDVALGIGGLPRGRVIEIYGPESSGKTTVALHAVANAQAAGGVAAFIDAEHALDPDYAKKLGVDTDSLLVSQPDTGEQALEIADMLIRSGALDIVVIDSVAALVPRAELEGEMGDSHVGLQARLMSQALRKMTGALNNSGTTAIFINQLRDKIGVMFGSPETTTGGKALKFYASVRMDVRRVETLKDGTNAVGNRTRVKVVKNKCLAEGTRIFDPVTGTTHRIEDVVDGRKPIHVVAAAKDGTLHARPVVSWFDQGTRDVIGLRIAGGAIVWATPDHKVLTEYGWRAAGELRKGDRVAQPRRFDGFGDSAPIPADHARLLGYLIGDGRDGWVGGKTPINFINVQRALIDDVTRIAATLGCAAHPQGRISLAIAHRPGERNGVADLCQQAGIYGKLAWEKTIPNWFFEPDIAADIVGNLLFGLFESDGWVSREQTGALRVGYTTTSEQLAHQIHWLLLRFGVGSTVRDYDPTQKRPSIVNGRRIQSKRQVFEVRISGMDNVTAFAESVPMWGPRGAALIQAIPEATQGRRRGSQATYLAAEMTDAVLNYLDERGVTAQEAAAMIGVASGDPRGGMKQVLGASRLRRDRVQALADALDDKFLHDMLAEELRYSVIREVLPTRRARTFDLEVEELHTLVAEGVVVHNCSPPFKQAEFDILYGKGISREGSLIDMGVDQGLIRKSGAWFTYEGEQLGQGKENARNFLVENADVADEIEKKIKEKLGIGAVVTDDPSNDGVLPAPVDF

[11] = OVCAR-3 cell viability loss – plate reader, dry powder samples, PAX8 inhibitor project, dose response (AID 743044); assay type: functional, cell-based
[12] = A2780 cell killing – plate reader, dry powder samples, cytotoxicity control, dose response (AID 743046); assay type: functional, cell-based
[13] = target: Paired box protein Pax-8 (Homo sapiens, UniProt Q06710); experiment: PAX8 transcriptional activity inhibition in RMG-I – RMG-I cells, luciferase, cherry-pick, dose response (AID 687027); assay type: functional, cell-based;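 further: luciferase reporter driven by Pax8 target thyroperoxidase promoter measured by SteadyGlo luminescence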
[14] = OVCAR8 cell viability loss – plate reader, dry powder samples, PAX8 project, dose response (AID 743197); assay type: functional, cell-based; details: OVCAR-8
[15] = IGROV1 cell killing – plate reader, dry powder samples, PAX8 inhibitor project, dose response (AID 743043); assay type: functional, cell-based; details: IGROV-1
[16] = toxicity to human HepG2 hepatoma cells – cell-based, plate reader, dry powder samples, cytotoxicity control, dose response (AID 1159569); assay type: functional;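 further: inhibitor potency with signal falling toward the positive control level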
[17] = P. falciparum Dd2 growth inhibitors, dose response, SYBR Green, cherry-picked samples (AID 1159567); assay type: functional, cell-based
[18] = growth inhibition of PfATP4-mutant resistant parasites – NITD609-resistant line, SYBR Green, dry powder, dose response (AID 1159571); assay type: functional, cell-based;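 further: parasites synchronized at ring stage by sorbitol before testing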
[19] = Dd2 malaria parasite growth inhibition potency – SYBR Green, dry powder samples, dose response (AID 1159566); assay type: functional, cell-based;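 further: potency for growth inhibition with lower SYBR green DNA signal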
[20] = growth inhibition of yeast DHODH-expressing 3D7 parasites – SYBR Green, dry powder samples, dose response (AID 1159570); assay type: functional, cell-based;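 further: parasite growth measured after 72 hours of compound exposure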

Chain of Paired box protein Pax-8 (Q06710 whole entry): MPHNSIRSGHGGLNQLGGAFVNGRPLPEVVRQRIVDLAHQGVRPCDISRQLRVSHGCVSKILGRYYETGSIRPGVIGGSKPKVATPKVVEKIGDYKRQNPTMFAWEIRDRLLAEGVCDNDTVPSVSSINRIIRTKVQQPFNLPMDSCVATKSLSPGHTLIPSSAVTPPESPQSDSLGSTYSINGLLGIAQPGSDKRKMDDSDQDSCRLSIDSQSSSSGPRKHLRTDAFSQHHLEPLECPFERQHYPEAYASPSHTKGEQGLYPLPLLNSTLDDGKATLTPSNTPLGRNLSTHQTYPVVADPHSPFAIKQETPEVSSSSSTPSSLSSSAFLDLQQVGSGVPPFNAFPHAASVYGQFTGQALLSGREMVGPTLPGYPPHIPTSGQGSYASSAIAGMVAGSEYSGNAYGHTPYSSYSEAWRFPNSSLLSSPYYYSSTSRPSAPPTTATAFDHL

CC(C)c1ccc(NC(S)=NC2CC3C=CC2C3)cc1 (centres undefined)
IC50 [1]: 42.5 µM (not active)

Cc1cc(-c2nnc3n2N=C(c2ccc(-c4ccccc4)cc2)CS3)[nH]n1
EC50 [2]: 13.7 µM (active)
EC50 [3]: 15.9 µM (active)
EC50 [4]: 15.2 µM (active)
EC50 [5]: 16.1 µM (active)
IC50 [6]: > 100 µM (not active)

O=C(CN1C(=O)C2C3c4ccccc4C(c4ccccc43)C2C1=O)N1CCOCC1 (centres undefined)
IC50 [6]: > 100 µM (not active)

COC(=O)c1ccccc1NC(=O)N1CCN(c2ccc(F)cc2)CC1
IC50 [1]: 8.67 µM (not active)

O=C(O)C1CC=CCC1C(=O)Nc1ccc(F)c(F)c1 (centres undefined)
IC50 [7]: 20.4 µM (active)
IC50 [6]: > 100 µM (not active)

O=C(Nc1ccccn1)c1cccc(S(=O)(=O)N2CCCCC2)c1
IC50 [6]: > 100 µM (not active)

O=C(Nc1ccc(Cl)c(Cl)c1)OCCNC(=O)c1cccc(Cl)c1
IC50 [1]: 2.99 µM (not active)

CC1=NN(c2ccc(S(=O)(=O)O)cc2Cl)C(=O)C1
AC50 [8]: 4.45 µM (active)
AC50 [9]: 19 µM (active)
EC50 [10]: 9.45 µM (active)

COc1ccc(-c2ccc3c(c2)[C@@H]2[C@@H](CCN2C(=O)C2CCCCC2)[C@H](CO)N3C)cc1
AC50 [11]: 25.2 µM (active)
AC50 [12]: 10.7 µM (active)
AC50 [13]: 6.75 µM (active)
AC50 [14]: 32.7 µM (active)
AC50 [15]: 47.5 µM (active)

C[C@@H]1CN([C@H](C)CO)C(=O)c2cc(NC(=O)NC3CCCCC3)ccc2O[C@@H](C)CCCCO[C@H]1CN(C)Cc1ccc(C(F)(F)F)cc1
AC50 [11]: 12.7 µM (active)
AC50 [12]: 25.7 µM (active)
AC50 [13]: 6.85 µM (active)
AC50 [14]: 54.1 µM (active)
AC50 [15]: 24.8 µM (active)

C[C@@H]1CN([C@H](C)CO)C(=O)c2cc(C#Cc3cccc(F)c3)cnc2O[C@@H]1CN(C)C(=O)C1CCCCC1
AC50 [16]: 30.1 µM (active)
AC50 [17]: 2.91 µM (active)
AC50 [18]: 2.66 µM (active)
AC50 [19]: 2.16 µM (active)
AC50 [20]: 3.19 µM (active)

C[C@H]1CN([C@@H](C)CO)C(=O)c2ccccc2-c2ccccc2CO[C@@H]1CN(C)C(=O)Nc1ccc(-c2ccccc2)cc1
AC50 [16]: > 100 µM (inactive)
AC50 [17]: 1.77 µM (active)
AC50 [18]: 1.56 µM (active)
AC50 [19]: 0.723 µM (active)
AC50 [20]: 1.35 µM (active)

COc1ccccc1CN1CC2(C1)[C@H](c1ccccc1)[C@H](CO)N2Cc1ccccc1
AC50 [16]: 23.9 µM (active)
AC50 [18]: 2.85 µM (active)
AC50 [19]: 1.96 µM (active)
AC50 [20]: 4.14 µM (active)
